The target in experiment [1] is Tyrosine-protein kinase ABL1 (Homo sapiens, UniProt P00519).
Experiment [2] has as its target Glycogen synthase kinase-3 alpha (Homo sapiens, UniProt P49840).
For experiment [3], the target named is T1, Mitogen-activated protein kinase kinase kinase 6 (Homo sapiens, UniProt O95382).
T1 sequence (O95382 whole entry): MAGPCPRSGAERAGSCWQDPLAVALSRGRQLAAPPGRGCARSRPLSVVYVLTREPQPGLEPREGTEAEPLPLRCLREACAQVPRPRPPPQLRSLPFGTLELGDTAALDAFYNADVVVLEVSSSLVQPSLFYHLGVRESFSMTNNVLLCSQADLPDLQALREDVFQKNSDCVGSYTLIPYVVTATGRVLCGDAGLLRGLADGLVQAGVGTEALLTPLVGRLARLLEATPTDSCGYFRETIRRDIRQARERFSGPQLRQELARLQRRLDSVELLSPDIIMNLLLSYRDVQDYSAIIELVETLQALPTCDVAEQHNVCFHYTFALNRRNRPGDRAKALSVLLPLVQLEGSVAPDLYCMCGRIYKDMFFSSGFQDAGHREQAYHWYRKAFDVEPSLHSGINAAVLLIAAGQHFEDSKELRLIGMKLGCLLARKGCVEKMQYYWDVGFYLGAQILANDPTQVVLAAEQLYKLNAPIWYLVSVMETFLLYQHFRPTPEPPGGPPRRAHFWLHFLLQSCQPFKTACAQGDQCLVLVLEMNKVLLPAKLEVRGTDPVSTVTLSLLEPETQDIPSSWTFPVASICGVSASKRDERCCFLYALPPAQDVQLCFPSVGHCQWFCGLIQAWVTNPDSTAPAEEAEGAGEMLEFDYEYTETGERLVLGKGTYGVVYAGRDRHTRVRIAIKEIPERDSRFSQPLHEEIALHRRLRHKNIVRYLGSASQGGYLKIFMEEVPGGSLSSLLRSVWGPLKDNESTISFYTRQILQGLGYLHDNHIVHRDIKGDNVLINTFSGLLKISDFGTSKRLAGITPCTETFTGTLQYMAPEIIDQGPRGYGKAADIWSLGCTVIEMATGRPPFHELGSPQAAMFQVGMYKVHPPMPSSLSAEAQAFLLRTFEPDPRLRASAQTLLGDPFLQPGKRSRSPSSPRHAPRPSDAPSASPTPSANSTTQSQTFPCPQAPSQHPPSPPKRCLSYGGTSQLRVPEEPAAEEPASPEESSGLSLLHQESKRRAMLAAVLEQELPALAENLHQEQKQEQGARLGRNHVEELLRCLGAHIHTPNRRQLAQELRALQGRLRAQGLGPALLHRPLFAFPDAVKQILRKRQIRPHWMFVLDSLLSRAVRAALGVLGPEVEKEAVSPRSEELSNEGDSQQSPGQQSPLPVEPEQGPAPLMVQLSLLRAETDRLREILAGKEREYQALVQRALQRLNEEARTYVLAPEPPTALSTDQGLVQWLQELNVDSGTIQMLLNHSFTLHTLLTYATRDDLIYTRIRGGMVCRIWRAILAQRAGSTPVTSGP

Experiment [4] has as its target Dual specificity tyrosine-phosphorylation-regulated kinase 1A (Homo sapiens, UniProt Q13627).
For experiment [5], the target named is T2, Septin-9 (Homo sapiens, UniProt Q9UHD8).
T2 sequence (Q9UHD8 whole entry): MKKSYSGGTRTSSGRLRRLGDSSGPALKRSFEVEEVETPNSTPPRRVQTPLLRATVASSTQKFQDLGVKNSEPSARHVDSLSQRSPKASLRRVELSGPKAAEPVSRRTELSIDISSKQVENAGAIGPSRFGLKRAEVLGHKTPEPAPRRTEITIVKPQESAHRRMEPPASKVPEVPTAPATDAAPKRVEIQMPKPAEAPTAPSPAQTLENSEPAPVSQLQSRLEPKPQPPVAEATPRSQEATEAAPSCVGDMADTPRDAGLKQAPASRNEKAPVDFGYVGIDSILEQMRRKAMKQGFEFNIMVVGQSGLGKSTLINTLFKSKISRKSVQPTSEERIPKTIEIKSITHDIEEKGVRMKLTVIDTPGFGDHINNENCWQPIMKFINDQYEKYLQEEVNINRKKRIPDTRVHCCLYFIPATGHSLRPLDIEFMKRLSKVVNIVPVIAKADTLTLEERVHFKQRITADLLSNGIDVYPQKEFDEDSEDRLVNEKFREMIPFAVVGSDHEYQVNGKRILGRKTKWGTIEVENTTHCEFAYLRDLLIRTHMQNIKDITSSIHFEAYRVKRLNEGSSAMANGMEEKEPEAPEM

Experiment [6] concerns the target Ephrin type-A receptor 5 (Homo sapiens, UniProt P54756).
For experiment [7], the target named is RAC-alpha serine/threonine-protein kinase (Homo sapiens, UniProt P31749).
RAC-alpha serine/threonine-protein kinase, sequence (P31749 whole entry): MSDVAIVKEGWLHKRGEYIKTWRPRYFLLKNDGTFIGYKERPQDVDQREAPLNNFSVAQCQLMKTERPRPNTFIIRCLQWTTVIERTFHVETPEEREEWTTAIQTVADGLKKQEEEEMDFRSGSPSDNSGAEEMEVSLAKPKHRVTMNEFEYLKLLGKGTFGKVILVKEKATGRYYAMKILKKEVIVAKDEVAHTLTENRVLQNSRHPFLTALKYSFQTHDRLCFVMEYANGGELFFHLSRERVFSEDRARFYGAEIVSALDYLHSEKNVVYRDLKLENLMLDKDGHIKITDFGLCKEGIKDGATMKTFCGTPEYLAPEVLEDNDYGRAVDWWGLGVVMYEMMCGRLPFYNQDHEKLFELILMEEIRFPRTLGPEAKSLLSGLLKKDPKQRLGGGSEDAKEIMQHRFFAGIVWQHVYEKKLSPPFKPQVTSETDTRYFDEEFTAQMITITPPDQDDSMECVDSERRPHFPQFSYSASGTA
The target in experiment [8] is Tyrosine-protein kinase CSK (Homo sapiens, UniProt P41240).
Tyrosine-protein kinase CSK, sequence (P41240 whole entry): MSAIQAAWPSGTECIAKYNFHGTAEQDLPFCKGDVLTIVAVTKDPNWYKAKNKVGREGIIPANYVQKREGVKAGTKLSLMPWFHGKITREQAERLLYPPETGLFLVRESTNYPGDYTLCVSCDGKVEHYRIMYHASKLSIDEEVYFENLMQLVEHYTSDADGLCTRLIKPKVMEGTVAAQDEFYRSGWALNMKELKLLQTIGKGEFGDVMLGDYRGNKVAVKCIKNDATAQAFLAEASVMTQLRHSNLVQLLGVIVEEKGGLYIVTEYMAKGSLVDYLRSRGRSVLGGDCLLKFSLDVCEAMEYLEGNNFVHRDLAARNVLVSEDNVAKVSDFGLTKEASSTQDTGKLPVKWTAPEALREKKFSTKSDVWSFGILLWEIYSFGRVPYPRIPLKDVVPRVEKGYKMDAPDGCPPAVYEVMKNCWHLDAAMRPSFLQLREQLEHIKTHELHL
The target of experiment [9] is Serine/threonine-protein kinase pim-1 (Homo sapiens, UniProt P11309).
Serine/threonine-protein kinase pim-1, sequence (P11309 whole entry): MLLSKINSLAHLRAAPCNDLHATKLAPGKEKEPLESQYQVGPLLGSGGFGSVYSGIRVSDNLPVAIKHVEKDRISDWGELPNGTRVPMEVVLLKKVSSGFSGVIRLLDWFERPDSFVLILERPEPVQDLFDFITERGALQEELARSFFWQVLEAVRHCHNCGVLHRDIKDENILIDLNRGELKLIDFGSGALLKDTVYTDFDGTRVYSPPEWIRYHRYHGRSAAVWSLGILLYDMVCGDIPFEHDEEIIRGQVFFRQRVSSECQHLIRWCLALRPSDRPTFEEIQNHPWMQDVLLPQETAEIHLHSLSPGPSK
Experiment [10] deals with Tyrosine-protein kinase Lyn (Homo sapiens, UniProt P07948).
Tyrosine-protein kinase Lyn, sequence (P07948 whole entry): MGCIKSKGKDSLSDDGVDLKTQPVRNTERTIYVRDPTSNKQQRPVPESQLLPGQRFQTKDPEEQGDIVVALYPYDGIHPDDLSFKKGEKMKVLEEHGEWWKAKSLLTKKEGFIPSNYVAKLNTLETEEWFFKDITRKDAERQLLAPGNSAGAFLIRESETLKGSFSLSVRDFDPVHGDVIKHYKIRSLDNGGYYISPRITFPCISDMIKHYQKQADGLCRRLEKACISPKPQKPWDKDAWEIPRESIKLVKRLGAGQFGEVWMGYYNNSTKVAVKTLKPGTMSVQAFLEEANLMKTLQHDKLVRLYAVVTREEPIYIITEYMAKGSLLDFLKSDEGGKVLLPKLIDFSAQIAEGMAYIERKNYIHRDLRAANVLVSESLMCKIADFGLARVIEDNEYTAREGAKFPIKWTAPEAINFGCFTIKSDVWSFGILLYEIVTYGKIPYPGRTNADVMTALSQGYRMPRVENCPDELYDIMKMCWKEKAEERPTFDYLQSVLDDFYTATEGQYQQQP

Molecules are shown by their SMILES. Calls of active or inactive are those of the source. Cut-off read from the data, not from the text of the source, for most assays here: actives have a measured Kd and inactives only a lower limit.

Broadly, the Kd is the free concentration of one partner at which half of the binding sites on the other are occupied at equilibrium, for simple one-to-one binding.
Note: in the data inactive means no Kd found up to 30 µM.

Tyrosine-protein kinase ABL1, sequence (P00519 whole entry): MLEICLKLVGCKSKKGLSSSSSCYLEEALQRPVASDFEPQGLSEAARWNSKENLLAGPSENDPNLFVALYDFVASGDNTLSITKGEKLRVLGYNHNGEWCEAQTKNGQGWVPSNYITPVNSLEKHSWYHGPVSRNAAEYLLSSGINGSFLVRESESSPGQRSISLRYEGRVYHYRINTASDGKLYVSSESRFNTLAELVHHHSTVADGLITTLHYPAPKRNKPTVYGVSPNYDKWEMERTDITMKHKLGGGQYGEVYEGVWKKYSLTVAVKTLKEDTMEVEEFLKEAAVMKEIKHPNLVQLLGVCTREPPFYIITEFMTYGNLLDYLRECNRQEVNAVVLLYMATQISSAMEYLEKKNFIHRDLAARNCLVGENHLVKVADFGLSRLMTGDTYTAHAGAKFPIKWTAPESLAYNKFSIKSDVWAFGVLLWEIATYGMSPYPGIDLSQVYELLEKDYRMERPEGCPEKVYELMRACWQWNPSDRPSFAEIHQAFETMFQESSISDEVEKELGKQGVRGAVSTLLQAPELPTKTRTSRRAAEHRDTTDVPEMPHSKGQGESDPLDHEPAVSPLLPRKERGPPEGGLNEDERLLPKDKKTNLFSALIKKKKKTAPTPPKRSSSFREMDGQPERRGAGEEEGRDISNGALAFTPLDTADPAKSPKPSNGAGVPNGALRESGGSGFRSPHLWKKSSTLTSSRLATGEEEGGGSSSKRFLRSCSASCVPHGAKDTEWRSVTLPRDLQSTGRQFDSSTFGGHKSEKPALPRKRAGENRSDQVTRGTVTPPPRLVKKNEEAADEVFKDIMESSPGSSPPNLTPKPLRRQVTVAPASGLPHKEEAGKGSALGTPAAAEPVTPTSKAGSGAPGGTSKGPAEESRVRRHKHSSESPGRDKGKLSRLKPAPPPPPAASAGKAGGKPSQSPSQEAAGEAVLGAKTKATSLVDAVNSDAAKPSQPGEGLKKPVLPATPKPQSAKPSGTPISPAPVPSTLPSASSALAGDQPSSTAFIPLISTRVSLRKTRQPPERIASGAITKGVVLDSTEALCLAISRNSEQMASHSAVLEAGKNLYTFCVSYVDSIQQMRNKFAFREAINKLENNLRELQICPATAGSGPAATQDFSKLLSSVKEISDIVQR
Ephrin type-A receptor 5, sequence (P54756 whole entry): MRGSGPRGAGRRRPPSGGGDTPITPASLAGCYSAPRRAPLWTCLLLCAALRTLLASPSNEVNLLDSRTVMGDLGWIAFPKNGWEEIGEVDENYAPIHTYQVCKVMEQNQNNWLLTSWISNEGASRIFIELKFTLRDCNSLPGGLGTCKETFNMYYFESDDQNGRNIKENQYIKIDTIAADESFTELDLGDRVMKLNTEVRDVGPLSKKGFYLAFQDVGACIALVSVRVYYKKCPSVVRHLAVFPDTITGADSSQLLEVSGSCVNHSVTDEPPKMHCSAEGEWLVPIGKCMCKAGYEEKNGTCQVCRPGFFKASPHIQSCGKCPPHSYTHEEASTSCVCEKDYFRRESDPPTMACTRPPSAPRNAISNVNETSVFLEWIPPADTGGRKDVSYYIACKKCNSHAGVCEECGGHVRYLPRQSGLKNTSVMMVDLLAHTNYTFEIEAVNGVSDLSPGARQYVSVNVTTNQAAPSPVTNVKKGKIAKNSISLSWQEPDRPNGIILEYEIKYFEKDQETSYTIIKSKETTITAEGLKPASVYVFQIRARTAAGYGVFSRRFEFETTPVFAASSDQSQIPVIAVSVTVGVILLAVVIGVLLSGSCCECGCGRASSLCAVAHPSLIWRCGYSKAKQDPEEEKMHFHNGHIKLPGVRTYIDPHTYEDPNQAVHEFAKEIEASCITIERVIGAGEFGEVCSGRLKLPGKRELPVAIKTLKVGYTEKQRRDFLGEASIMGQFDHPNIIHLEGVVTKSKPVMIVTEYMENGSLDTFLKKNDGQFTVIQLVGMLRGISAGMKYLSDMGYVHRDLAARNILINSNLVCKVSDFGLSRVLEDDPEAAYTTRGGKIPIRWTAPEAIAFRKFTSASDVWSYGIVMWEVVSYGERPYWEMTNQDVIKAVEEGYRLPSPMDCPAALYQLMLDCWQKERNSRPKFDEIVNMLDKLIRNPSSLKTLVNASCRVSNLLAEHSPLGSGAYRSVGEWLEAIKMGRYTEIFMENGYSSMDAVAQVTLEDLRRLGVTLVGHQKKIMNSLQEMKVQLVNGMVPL
Glycogen synthase kinase-3 alpha, sequence (P49840 whole entry): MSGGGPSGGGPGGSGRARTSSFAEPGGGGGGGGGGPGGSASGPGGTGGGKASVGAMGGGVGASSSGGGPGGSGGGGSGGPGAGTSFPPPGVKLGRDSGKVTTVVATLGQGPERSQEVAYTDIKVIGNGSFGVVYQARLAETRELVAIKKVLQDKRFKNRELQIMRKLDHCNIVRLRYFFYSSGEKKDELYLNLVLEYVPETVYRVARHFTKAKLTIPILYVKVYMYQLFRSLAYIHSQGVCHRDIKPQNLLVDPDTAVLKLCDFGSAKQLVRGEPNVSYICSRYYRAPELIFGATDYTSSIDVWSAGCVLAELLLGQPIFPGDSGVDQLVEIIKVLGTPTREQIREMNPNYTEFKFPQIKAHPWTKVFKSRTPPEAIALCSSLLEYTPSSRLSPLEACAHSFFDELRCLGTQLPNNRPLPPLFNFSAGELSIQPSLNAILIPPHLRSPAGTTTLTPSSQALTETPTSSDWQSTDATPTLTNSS

For `CN1CCC(COc2cnc(-c3cccc(Cn4nc(-c5cccc(C#N)c5)ccc4=O)c3)nc2)CC1` [TEPOTINIB], the Kd in experiment [1], in [2], in experiment [3], in [4], in experiment [5] and in experiment [6] was > 30 µM (inactive) throughout. The Kd in experiment [7], in [8], in experiment [9] and in experiment [10] was > 30 µM (inactive) in each case.

In the case of `CCn1c(=O)c(-c2cc[nH]n2)cc2c(C)nc(N)nc21` [VOXTALISIB], the Kd in experiment [1], in experiment [2], in [3], in experiment [4], in experiment [5] and in experiment [6] was > 30 µM (inactive) throughout. Besides, the Kd in [7], in experiment [8], in experiment [9] and in [10] was > 30 µM (inactive) each time.

Turning to `Cn1cc(-c2ccc(F)c(C(F)(F)F)c2)nc1C1CCN(c2ncnc3[nH]ncc23)CC1` [LY-2584702], the Kd in experiment [1], in experiment [2], in experiment [3], in experiment [4], in [5] and in [6] was > 30 µM (inactive) throughout. The Kd in experiment [7], in [8], in [9] and in [10] was > 30 µM (inactive) each time.

`Cc1cc2c(F)c(Oc3ncnn4cc(OC[C@@H](C)OC(=O)[C@H](C)N)c(C)c34)ccc2[nH]1` [BRIVANIB ALANINATE]: the Kd in experiment [1], in [2], in experiment [3], in experiment [4], in experiment [5] and in experiment [6] was > 30 µM (inactive) in each case. In addition, the Kd in experiment [7], in [8], in experiment [9] and in [10] was > 30 µM (inactive) in each case.

For `CNC(=O)c1ccc(C)c(-n2c(C)cc(OCc3ccc(F)cc3F)c(Br)c2=O)c1` [PH-797804], the Kd in experiment [1], in experiment [2], in experiment [3], in experiment [4], in [5] and in [6] was > 30 µM (inactive) throughout. The Kd in experiment [7], in experiment [8], in experiment [9] and in [10] was > 30 µM (inactive) each time.

As to `CNC(=O)c1cc(Oc2ccc(NC(=O)Nc3ccc(Cl)c(C(F)(F)F)c3)c(F)c2)ccn1` [REGORAFENIB], the dissociation constant (Kd) in [1] was 0.753 µM (active); in [2], > 30 µM (inactive); in [3], > 30 µM (inactive); in [4] it was > 30 µM (inactive); in experiment [5] it was > 30 µM (inactive); in experiment [6], 1.12 µM. The Kd in experiment [7], in experiment [8], in experiment [9] and in experiment [10] was > 30 µM (inactive) throughout.

For the compound `COC(=O)N[C@@H](C)CNc1nccc(-c2cn(C(C)C)nc2-c2cc(Cl)cc(NS(C)(=O)=O)c2F)n1` [ENCORAFENIB], the Kd in experiment [1] was > 30 µM (inactive); in [2], 5.26 µM (active); in experiment [3], > 30 µM (inactive); in experiment [4], > 30 µM (inactive); in [5], > 30 µM (inactive); in experiment [6], > 30 µM (inactive). For the same compound, the Kd in [7], in [8], in experiment [9] and in experiment [10] was > 30 µM (inactive) each time.

On to `Cc1c(F)cc(C(=O)NC2CC2)cc1-c1ccc(C(=O)NCC(C)(C)C)cn1` [LOSMAPIMOD], for which the Kd in [1], in experiment [2], in experiment [3], in experiment [4], in experiment [5] and in experiment [6] was > 30 µM (inactive) throughout. Also, the Kd in experiment [7], in experiment [8], in experiment [9] and in [10] was > 30 µM (inactive) in each case.

As to `Cc1cc(-c2cc(O)ccc2Cl)cc2nnc(Nc3ccc(OCCN4CCCC4)cc3)nc12`, the dissociation constant (Kd) in [1] is 0.002 µM (active); in experiment [2] it was > 30 µM (inactive); in experiment [3], > 30 µM (inactive); in experiment [4] it was > 30 µM (inactive); in experiment [5], > 30 µM (inactive); in experiment [6], 0.0004 µM (active). The Kd in experiment [7], in experiment [8], in experiment [9] and in experiment [10] was > 30 µM (inactive) each time.

In the case of `C=CC(=O)N1CCC(Oc2cc3c(Nc4ccc(Cl)c(Cl)c4F)ncnc3cc2OC)CC1` [POZIOTINIB], the Kd in experiment [1], in experiment [2], in experiment [3], in experiment [4], in [5] and in [6] was > 30 µM (inactive) throughout. In addition, the Kd in experiment [7], in experiment [8], in experiment [9] and in experiment [10] was > 30 µM (inactive) each time.

As for `O=C1NC(=O)/C(=C/c2ccc3nccc(-c4ccncc4)c3c2)S1` [GSK-1059615], the Kd was > 30 µM (inactive) in experiment [1]; > 30 µM (inactive) in [2]; > 30 µM (inactive) in [3]; 0.314 µM (active) in experiment [4]; > 30 µM (inactive) in experiment [5]; > 30 µM (inactive) in [6]. The Kd in [7] is > 30 µM (inactive); in [8], > 30 µM (inactive); in experiment [9], 0.205 µM (active); in [10], > 30 µM (inactive).

With `CC[C@@H]1C(=O)N(C)c2cnc(Nc3ccc(C(=O)N[C@H]4CC[C@H](N5CCN(CC6CC6)CC5)CC4)cc3OC)nc2N1C(C)C` [VOLASERTIB], the Kd in [1], in experiment [2], in experiment [3], in experiment [4], in [5] and in [6] was > 30 µM (inactive) each time. Also, the Kd in experiment [7], in experiment [8], in experiment [9] and in experiment [10] was > 30 µM (inactive) in each case.

For the origin of these results see ChEMBL document CHEMBL3991601, “The target landscape of clinical kinase drugs” (Science, 2017).
